Results on 32 compounds are retold here after patent publication US12150995B2, “IRAK degraders and uses thereof” (Kymera Therapeutics, Inc., priority 2020, dated 2024).

Each structure is given as a SMILES string. A value given as a limit tells only on which side of the number the result lay.

In this assay the target is T1, IRAK4 (Homo sapiens, UniProt Q9NWZ3).
T1 construct: endogenous in cells; host or cells: OCI-LY10
T1 sequence (Q9NWZ3 1-460): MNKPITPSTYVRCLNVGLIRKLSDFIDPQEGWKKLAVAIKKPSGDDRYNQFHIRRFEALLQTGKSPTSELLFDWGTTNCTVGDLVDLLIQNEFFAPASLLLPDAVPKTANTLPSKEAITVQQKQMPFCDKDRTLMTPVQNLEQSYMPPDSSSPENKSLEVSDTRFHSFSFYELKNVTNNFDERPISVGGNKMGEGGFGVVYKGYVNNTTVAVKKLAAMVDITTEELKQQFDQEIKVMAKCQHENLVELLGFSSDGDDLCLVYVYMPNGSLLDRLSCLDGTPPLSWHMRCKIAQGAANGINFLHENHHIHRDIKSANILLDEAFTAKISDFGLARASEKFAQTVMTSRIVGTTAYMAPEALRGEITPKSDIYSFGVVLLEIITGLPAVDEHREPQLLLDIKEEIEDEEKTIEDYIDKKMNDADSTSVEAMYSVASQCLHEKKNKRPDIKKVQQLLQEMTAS
Put plainly: IRAK4 MSD Degradation in OCI-LY10. Format: cell-based. To be noted: OCI-LY10 cells, Meso Scale Discovery, incubated 4 to 24 hours. The procedure, abridged: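 OCI-LY10 cells (300,000/well) exposed to an 8-point 1:3 series from a top concentration of 1 to 10 μM for 4 to 24 h at 37 °C. IRAK4 remaining in RIPA lysates quantified by MSD sandwich immunoassay; DC50 from a three-parameter logistic fit.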

Take `C[C@@H]1CN(c2cccc3c2n(C)c(=O)n3C2CCC(=O)NC2=O)CCN1C[C@H]1CC[C@H](n2cc3cc(NC(=O)c4cccc(C(F)(F)F)n4)c(C(C)(C)O)cc3n2)CC1` (some centres unmarked) [I-226]: the DC50 (commonly the concentration giving 50% degradation) is < 10 nM.

As for `COc1cc2nc([C@H]3CC[C@H](CN(C)CCCNc4cccc5c4C(=O)N(C4CCC(=O)NC4=O)C5=O)CC3)sc2cc1NC(=O)c1cncc(C)c1` (some centres unmarked) [I-459], the DC50 is > 200 nM.

For `Cn1c(=O)n(C2CCC(=O)NC2=O)c2cccc(C3CCN(C[C@H]4CC[C@H](n5cc6cc(NC(=O)c7cccc(C(F)(F)F)c7F)ccc6n5)CC4)CC3)c21` (some centres unmarked) [I-214], the DC50 was < 10 nM.

`COc1cc2nc([C@H]3CC[C@H](CN4CCN(c5cccc6c(N7CCC(=O)NC7=O)cncc56)CC4)CC3)sc2cc1NC(=O)c1cccc(C(F)(F)F)n1` [I-223]: the 50% degradation concentration (DC50) was 10 to 50 nM.

On to `Cc1cccc(C(=O)Nc2cc3sc([C@H]4CC[C@H](CN5C[C@H]6C[C@@H]5CN6CCNc5cccc6c5C(=O)N(C5CCC(=O)NC5=O)C6=O)CC4)nc3cc2C(C)(C)O)n1` (some centres unmarked) [I-475], for which the DC50 is < 10 nM.

Consider `CC(C)(O)c1cc2nc([C@H]3CC[C@H](CN4CC5(CC(CCNc6cccc7c6C(=O)N(C6CCC(=O)NC6=O)C7=O)C5)C4)CC3)[nH]c2cc1NC(=O)c1cccc(C(F)(F)F)n1` (some centres unmarked) [I-14], for which the 50% degradation concentration (DC50) was in the range of 50 to 100 nM.

With `COc1cc2nn([C@H]3CC[C@H](CN4CCC(c5c(OC)ccc6c5n(C)c(=O)n6C5CCC(=O)NC5=O)CC4)CC3)cc2cc1NC(=O)c1cccc(C(F)(F)F)n1` (some centres unmarked) [I-48], the DC50 is < 10 nM.

Take `CC(C)(O)c1cc2nc([C@H]3CC[C@H](C(=O)N4CCN(CCCNc5cccc6c5C(=O)N(C5CCC(=O)NC5=O)C6=O)CC4)CC3)sc2cc1NC(=O)c1cccc(C(F)(F)F)n1` (some centres unmarked) [I-493]: the half-maximal degradation concentration (DC50) is < 10 nM.

`CC(C)(O)c1cc2nc([C@H]3CC[C@H](C(=O)N4CCC5(CC4)CC(CCNc4cccc6c4C(=O)N(C4CCC(=O)NC4=O)C6=O)C5)CC3)sc2cc1NC(=O)c1cccc(C(F)F)n1` (some centres unmarked) [I-457] came in with a DC50 of 100 to 200 nM.

With `Cn1c(=O)n(C2CCC(=O)NC2=O)c2cccc(C3CCN(C[C@H]4C[C@@H](n5cc6cc(NC(=O)c7cccc(C(F)(F)F)n7)c(F)cc6n5)C4)CC3)c21` (some centres unmarked) [I-18], the DC50 was > 200 nM.

With `CCc1cc2nn([C@H]3CC[C@H](CN4CCN(c5cccc6c5n(C)c(=O)n6C5CCC(=O)NC5=O)CC4)CC3)cc2cc1NC(=O)c1cccc(C(F)(F)F)n1` (some centres unmarked) [I-378], the DC50 was < 10 nM.

With `Cn1c(=O)n(C2CCC(=O)NC2=O)c2cccc(C3CCN(C[C@H]4CC[C@H](n5cc6cc(NC(=O)c7cccc(C(F)(F)F)n7)cc(F)c6n5)CC4)CC3)c21` (some centres unmarked) [I-240], the DC50 is < 10 nM.

For `CC(C)(O)c1cc2nn([C@H]3CC[C@H](CN4CCN(c5cccc6c(N7CCC(=O)NC7=O)cncc56)CC4)CC3)cc2cc1NC(=O)c1cccc(C(F)(F)F)n1` [I-224], the 50% degradation concentration (DC50) is < 10 nM.

Regarding `CC(C)(O)c1cc2nc([C@H]3CC[C@H](CN4CC5(CC(CCNc6cccc7c6C(=O)N(C6CCC(=O)NC6=O)C7=O)C5)C4)CC3)cn2cc1NC(=O)c1cccc(C(F)(F)F)n1` (some centres unmarked) [I-12], the 50% degradation concentration (DC50) lay in the range of 10 to 50 nM.

On to `Cn1c(=O)n(C2CCC(=O)NC2=O)c2cccc(N3CCN(C[C@H]4CC[C@H](n5cc6cc(NC(=O)c7cccc(C(F)(F)F)n7)c(N7C[C@@H]8C[C@H]7CO8)cc6n5)CC4)CC3)c21` (some centres unmarked) [I-383], for which the DC50 was < 10 nM.

For the compound `O=C1CCN(c2cncc3c(C4CCN(C[C@H]5CC[C@H](c6nc7ccc(NC(=O)c8cccc(C(F)(F)F)n8)cc7s6)CC5)CC4)cccc23)C(=O)N1` [I-201], the DC50 is > 200 nM.

The compound `COc1cc2nn([C@H]3CC[C@@H](CN4CC5(CC(CCNc6cccc7c6C(=O)N(C6CCC(=O)NC6=O)C7=O)C5)C4)CC3)cc2cc1NC(=O)c1cccc(C(C)(F)F)n1` (some centres unmarked) [I-11, 6-(1,1-Difluoroethyl)-N-[2-[4-[[6-[2-[[2-(2,6-dioxo-3-piperidyl)-1,3-dioxo-isoindolin-4-yl]amino]ethyl]-2-azaspiro[3.3]heptan-2-yl]methyl]cyclohexyl]-6-methoxy-indazol-5-yl]pyridine-2-carboxamide] returned a DC50 of 50 to 100 nM.

Turning to `Cn1c(=O)n(C2CCC(=O)NC2=O)c2cccc(N3CCN(C[C@H]4CC[C@H](n5cc6cc(NC(=O)c7cccc(C(F)(F)F)n7)c(C(=O)O)cc6n5)CC4)CC3)c21` (some centres unmarked) [I-415, 2-[4-[[4-[1-(2,6-dioxo-3-piperidyl)-3-methyl-2-oxo-benzimidazol-4-yl]piperazin-1-yl]methyl]cyclohexyl]-5-[[6-(trifluoromethyl)pyridine-2-carbonyl]amino]indazole-6-carboxylic acid], the DC50 lay in the range of 10 to 50 nM.

`COc1cc2nn([C@H]3CC[C@H](CN4CCC(c5cccc6c5n(C)c(=O)n6C5CCC(=O)NC5=O)CC4)CC3)cc2cc1NC(=O)c1nc(C(F)(F)F)cs1` (some centres unmarked) [I-175]: the DC50 was < 10 nM.

Compound `Cc1cccc(C(=O)Nc2cc3sc([C@H]4CC[C@H](CN5CCO[C@@H](CCCNc6cccc7c6C(=O)N(C6CCC(=O)NC6=O)C7=O)C5)CC4)nc3cc2C(C)(C)O)n1` (some centres unmarked) [I-472] had a DC50 of 50 to 100 nM.

Regarding `COc1cc2nc([C@H]3CC[C@H](CN4CCC(c5cccc6c5n(C)c(=O)n6C5CCC(=O)NC5=O)CC4)CC3)sc2cc1NC(=O)c1cncc(C#N)c1` (some centres unmarked) [I-185], the DC50 is < 10 nM.

For the compound `Cn1c(=O)n(C2CCC(=O)NC2=O)c2cccc(N3CCN(C[C@H]4CC[C@H](n5cc6cc(NC(=O)c7cccc(C(F)(F)F)n7)c([S+](C)[O-])cc6n5)CC4)CC3)c21` (some centres unmarked) [I-308], the DC50 was < 10 nM.

Regarding `COc1cc2nn([C@H]3CC[C@H](CN4C[C@@H]5C[C@H]4CN5c4cccc5c4n(C)c(=O)n5C4CCC(=O)NC4=O)CC3)cc2cc1NC(=O)c1cccc(C(F)(F)F)n1` (some centres unmarked) [I-168], the DC50 was < 10 nM.

As to `CC(C)Nc1c(C(=O)N[C@H]2CC[C@H](CN3CCN(c4cccc5c4n(C)c(=O)n5C4CCC(=O)NC4=O)CC3)CC2)cnc2c1Oc1cc(C#N)ccc1O2` (some centres unmarked) [I-407], the DC50 was < 10 nM.

As for `COc1cc2nn([C@H]3CC[C@H](CN4CCC(c5cccc6c5n(C)c(=O)n6C5CCC(=O)NC5=O)CC4)CC3)cc2cc1NC(=O)c1cc(Cl)cnn1` (some centres unmarked) [I-135], the DC50 was > 200 nM.

As for `Cn1c(=O)n(C2CCC(=O)NC2=O)c2cccc(C3CCN(C[C@H]4CC[C@H](n5cc6cc(NC(=O)c7cnn8cc(C#N)cnc78)ccc6n5)CC4)CC3)c21` (some centres unmarked) [I-95], the DC50 was < 10 nM.

As for `Cc1ccc2c(c1C1CCN(C[C@H]3CC[C@H](n4cc5cc(NC(=O)c6cccc(C(F)(F)F)n6)ccc5n4)CC3)CC1)n(C)c(=O)n2C1CCC(=O)NC1=O` (some centres unmarked) [I-99], the DC50 was < 10 nM.

As for `CN(CCCCNc1cccc2c1C(=O)N(C1CCC(=O)NC1=O)C2=O)C[C@H]1CC[C@H](c2nc3cc(C(C)(C)O)c(NC(=O)c4cccc(C(F)(F)F)n4)cc3s2)CC1` (some centres unmarked) [I-447], the half-maximal degradation concentration (DC50) is < 10 nM.

With `COc1cc2nn([C@H]3CC[C@H](CN4CCN(c5cccc6c5n(C5CC5)c(=O)n6C5CCC(=O)NC5=O)CC4)CC3)cc2cc1NC(=O)c1cccc(C(F)(F)F)n1` (some centres unmarked) [I-426], the DC50 was < 10 nM.

With `Cc1c(C2CCN(C[C@H]3CC[C@H](n4cc5cc(NC(=O)c6cccc(C(F)(F)F)n6)ncc5n4)CC3)CC2)ccc2c1n(C)c(=O)n2C1CCC(=O)NC1=O` (some centres unmarked) [I-210], the DC50 was > 200 nM.

`COc1cc2nn([C@H]3CC[C@H](CN4CCN(c5ccc6c(N7CCC(=O)NC7=O)cncc6c5OC)CC4)CC3)cc2cc1NC(=O)c1cccc(C(F)(F)F)n1` [I-376] had a DC50 of 10 to 50 nM.

On to `COc1cc2nn([C@H]3CC[C@H](CN4CCC(c5cccc6c5n(C)c(=O)n6C5CCC(=O)NC5=O)CC4(C)C)CC3)cc2cc1NC(=O)c1cccc(C(F)(F)F)n1` (some centres unmarked) [I-424], for which the DC50 was < 10 nM.
